These results are taken from patent publication US20050245543A1, “Histamine-3 receptor antagonists” (Pfizer Inc, priority 2004, published 2005).

The term Ki denotes the dissociation constant of the complex between target and ligand, obtained from inhibition or displacement. The low end stands for higher affinity, the high end for lower affinity. Broadly, the melting point is the temperature, or range, at which the solid turns liquid.

Counter-ions that a name gives are not always drawn.

T1 sequence (Q9QYN8 whole entry): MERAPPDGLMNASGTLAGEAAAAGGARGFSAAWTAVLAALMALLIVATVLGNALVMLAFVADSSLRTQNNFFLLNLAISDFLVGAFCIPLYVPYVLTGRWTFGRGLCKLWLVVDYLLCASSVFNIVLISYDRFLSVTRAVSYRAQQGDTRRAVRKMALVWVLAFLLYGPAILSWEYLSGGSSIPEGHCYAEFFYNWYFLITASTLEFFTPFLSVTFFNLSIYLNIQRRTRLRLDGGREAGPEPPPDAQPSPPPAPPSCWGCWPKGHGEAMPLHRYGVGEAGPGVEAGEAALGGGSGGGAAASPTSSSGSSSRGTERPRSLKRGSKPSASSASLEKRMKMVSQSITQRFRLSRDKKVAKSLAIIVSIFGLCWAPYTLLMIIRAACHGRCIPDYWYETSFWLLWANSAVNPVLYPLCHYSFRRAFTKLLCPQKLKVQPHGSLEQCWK

The first data set concerns the target T1, rat histamine H3 receptors (Rattus norvegicus, UniProt Q9QYN8).
T1 construct: Frozen rat frontal brain or frozen human post-mortem frontal brain is homogenized; from tissue; host or cells: rat frontal brain membranes
The experiment in a line: Rat H3 binding (3H-N-methylhistamine displacement, rat frontal brain membranes). To be noted: radioligand 1 nM 3H-N-methylhistamine, 1 hour incubation. The protocol:
The in vitro affinity of the compounds in the present invention at the rat or human histamine H3 receptors can be determined according to the following procedure. Frozen rat frontal brain or frozen human post-mortem frontal brain is homogenized in 20 volumes of cold 50 mM Tris HCl containing 2 mM MgCl2 (pH to 7.4 at 4 degrees C.). The homogenate is then centrifuged at 45,000 G for 10 minutes. The supernatant is decanted and the membrane pellet re-suspended by Polytron in cold 50 mM Tris HCl containing 2 mM MgCl2 (pH to 7.4 at 4 degrees C.) and centrifuged again. The final pellet is re-suspended in 50 mM Tris HCl containing 2 mM MgCl2 (pH to 7.4 at 25 degrees C.) at a concentration of 12 mg/mL. Dilutions of compounds are made in 10% DMSO/50 mM Tris buffer (pH 7.4) (at 10×final concentration, so that the final DMSO concentration is 1%). Incubations are initiated by the addition of membranes (200 microliters) to 96 well V-bottom polypropylene plates containing 25 microliters of drug dilutions and 25 microliters of radioligand (1 nM final concentration ^3H—N-methylhistamine). After a 1 hour incubation, assay samples are rapidly filtered through Whatman GF/B filters and rinsed with ice-cold 50 mM Tris buffer (pH 7.4) using a Skatron cell harvester. Radioactivity is quantified using a BetaPlate scintillation counter.
In turn, `CC(c1ccc(-c2ccc(-c3ccncc3)cc2)cc1)N1CCCC1` (racemic) [Example 1, (R)-(±)-4-[4′-(1-Pyrrolidin-1-ylethyl)-biphenyl-4-yl]-pyridine] displayed an inhibition constant Ki of 39.4 nM. On the same count and under the same terms, to `CC(c1ccc(-c2ccc(-c3cncnc3)cc2)cc1)N1CCCC1` (racemic) [Example 6, (±)-5-[4′-(1-Pyrrolidin-1-ylethyl)-biphenyl-4-yl]-pyrimidine] belongs 61.8 nM; to `CC(c1ccc(-c2ccc(-c3cncnc3)cc2)cc1)N1CCCC1` (racemic) [Example 7, (R)-(±)-5-[4′-(1-Pyrrolidin-1-ylethyl)-biphenyl-4-yl]-pyrimidine], 22.7 nM; to `CC(c1ccc(-c2ccc(C3CCNCC3)cc2)cc1)N1CCCC1` (racemic) [Example 72, (R)-(±)-4-[4′-(1-Pyrrolidin-1-ylethyl)-biphenyl-4-yl]-piperidine], 3.5 nM. On the same count and under the same terms, to `CC(c1ccc(-c2ccc(C3CCNCC3)cc2)cc1)N1CCCC1` (racemic) [Example 74, (±)-4-[4′-(1-Pyrrolidin-1-yl-ethyl)-biphenyl-4-yl]-piperidine] belongs 10 nM; to `C[C@@H](c1ccc(-c2ccc(-c3ccncc3)cc2)cc1)N1CCCC1` [Example 2, (S)-(−)-4-[4′-(1-Pyrrolidin-1-ylethyl)-biphenyl-4-yl]-pyridine], 137 nM. Still for that read-out and setting: the figure for `C[C@H](c1ccc(-c2ccc(-c3cccnc3)cc2)cc1)N1CCCC1` [Example 4] is 35.8 nM; for `COc1ncc(-c2ccc(-c3ccc([C@@H](C)N4CCCC4)cc3)cc2)c(OC)n1` [Example 5, (R)-2,4-Dimethoxy-5-[4′-(1-pyrrolidin-1-ylethyl)-biphenyl-4-yl]-pyrimidine] it is 45 nM; for `CC(c1ccc(-c2ccc(-c3cccnc3)cc2)cc1)N1CCCC1` (stereo not drawn) [Example 9, 3-[4′-(1-Pyrrolidin-1-ylethyl)-biphenyl-4-yl]-pyridine] it is 50 nM.

Take `CC(c1ccc(-c2ccc(-c3cncnc3)cc2)cc1)N1CCCC1` (stereo not drawn) [Example 20, 5-[4′-(1-Pyrrolidin-1-ylethyl)-biphenyl-4-yl]-pyrimidine]: the affinity corresponds to a Ki of 25.2 nM. Same read-out and setting: to `CC(c1ccc(-c2ccc(-c3ccncc3)cc2)cc1)N1CCCC1` (stereo not drawn) [Example 24, 4-[4′-(1-Pyrrolidin-1-ylethyl)-biphenyl-4-yl]-pyridine] belongs 52 nM; to `CC(c1ccc(-c2ccc(-c3ccccc3C(=O)N(C(C)C)C(C)C)cc2)cc1)N1CCCC1` (stereo not drawn) [Example 28, 4″-(1-Pyrrolidin-1-ylethyl)-[1,1′;4′,1″]terphenyl-2-carboxylic acid diisopropylamide], 13.6 nM. The same measure, in the same setting: to `CC(c1ccc(-c2ccc(-c3ccc(S(C)(=O)=O)cc3)cc2)cc1)N1CCCC1` (stereo not drawn) [Example 35, 1-[1-(4-Methanesulfonyl-[1,1′;4′,1″]terphenyl-4″-yl)-ethyl]-pyrrolidine] belongs 22.7 nM; to `CC(c1ccc(-c2ccc(-c3ccncc3)cc2)cc1)N(C)C` (stereo not drawn) [Example 39, Dimethyl-[1-(4′-pyridin-4-ylbiphenyl-4-yl)-ethyl]-amine], above 140 nM. Same read-out and setting: the figure for `C[C@@H](c1ccc(-c2ccc(C3CCNCC3)cc2)cc1)N1CCCC1` [Example 73, (S)-(−)4-[4′-(1-Pyrrolidin-1-ylethyl)-biphenyl-4-yl]-piperidine] is 72.6 nM; for `C[C@H](c1ccc(-c2ccc(C3CCN(C)CC3)cc2)cc1)N1CCCC1` [Example 77, (R)-1-Methyl-4-[4′-(1-Pyrrolidin-1-ylethyl)-biphenyl-4-yl]-piperidine] it is 24.3 nM; for `CCN1CCC(c2ccc(-c3ccc([C@@H](C)N4CCCC4)cc3)cc2)CC1` [Example 78, (R)-1-Ethyl-4-[4′-(1-pyrrolidin-1-ylethyl)-biphenyl-4-yl]-piperidine] it is 21.3 nM. The compound `Cc1cc(C2CCCN2C)ccc1-c1ccc(CN2CCCCC2)cc1` (stereo not drawn) [Example 79, 1-[2′-Methyl-4′-(1-methylpyrrolidin-2-yl)-biphenyl-4-ylmethyl]-piperidine] showed a Ki of 13.9 nM. This Ki is about 1.5-fold lower than that of the compound before. On the same count and under the same terms, the figure for `CC(c1ccc(-c2ccc(-c3cnc(O)nc3)cc2)cc1)N1CCCC1` (stereo not drawn) [Example 90, 5-[4′-(1-Pyrrolidin-1-ylethyl)-biphenyl-4-yl]-pyrimidin-2-ol] is 44 nM; for `CC(c1ccc(-c2ccc(-c3cnc(Cl)nc3)cc2)cc1)N1CCCC1` (stereo not drawn) [Example 91, 2-Chloro-5-[4′-(1-pyrrolidin-1-ylethyl)-biphenyl-4-yl]-pyrimidine] it is 38 nM. Take `COc1ncc(-c2ccc(-c3ccc(C(C)N4CCCC4)cc3)cc2)cn1` (stereo not drawn) [Example 92, 2-Methoxy-5-[4′-(1-pyrrolidin-1-ylethyl)-biphenyl-4-yl]-pyrimidine]: the affinity, expressed as Ki, was 42 nM.

As for `CC(c1ccc(-c2ccc(-c3cnc(N)nc3)cc2)cc1)N1CCCC1` (stereo not drawn) [Example 93, 5-[4′-(1-Pyrrolidin-1-ylethyl)-biphenyl-4-yl]-pyrimidin-2-ylamine], the Ki turned out to be 105 nM. `CC(c1ccc(-c2ccc(-c3cncnc3)cc2F)cc1)N1CCCC1` (stereo not drawn) [Example 94, 5-[2-Fluoro-4′-(1-pyrrolidin-1-ylethyl)-biphenyl-4-yl]-pyrimidine] yielded a Ki of 23 nM.

`Cc1cc(C2CCCN2C)ccc1-c1ccc(CNCc2ccc(Cl)cc2)cc1` (stereo not drawn) [Example 96, (4-Chlorobenzyl)-[2′-methyl-4′-(1-methylpyrrolidin-2-yl)-biphenyl-4-ylmethyl]-amine] showed an inhibition constant (Ki) of 14.7 nM.

System in another data set: not given
Experiment: not given
Conditions: not given
For `Cc1cc(C2CCCN2C)ccc1-c1ccc(CN2CCCCC2)cc1` (stereo not drawn) (as salt: HCl) [Example 79, 1-[2′-Methyl-4′-(1-methylpyrrolidin-2-yl)-biphenyl-4-ylmethyl]-piperidine], the melting point lay in the range of 237.1 to 240 °C. On the same count and under the same terms, the figure for `CC(c1ccc(-c2ccc(-c3cncnc3)cc2F)cc1)N1CCCC1` (stereo not drawn) (as salt: HCl) [Example 94, 5-[2-Fluoro-4′-(1-pyrrolidin-1-ylethyl)-biphenyl-4-yl]-pyrimidine] is 179.9 to 181.3 °C; for `Cc1cc(C2CCCN2C)ccc1-c1ccc(CNCc2ccc(Cl)cc2)cc1` (stereo not drawn) (as salt: hydrochloride) [Example 96, (4-Chlorobenzyl)-[2′-methyl-4′-(1-methylpyrrolidin-2-yl)-biphenyl-4-ylmethyl]-amine] it is 238.2 to 239.3 °C.
